# US12655094B2, “Cannabinoid sulfate esters, their salts and uses thereof” (LONDON PHARMACEUTICALS AND RESEARCH CORPORATION, priority 2020, dated 2026)
# Where a name gives a salt, the structure may show the parent alone.
# What was measured:
# [1] = Pharmacokinetic profile of cannabinoid sulfate esters compared to CBD; settings: for Cmax / Tmax / half-life: plasma
# Excerpt: The PK profile of certain exemplary cannabinoid sulfate esters, including the half-life (T1/2), maximum plasma concentration (Cmax), and time to reach Cmax (Tmax), is shown compared to CBD in the table below.
# [2] = pH 7.4; cited from earlier work
# intraocular pressure = settings: normotensive rabbit; cited from earlier work
SMILES,Cmax [1] [ng/mL],Tmax [1] [h],half-life [1] [h],T1/2 ([1]; half-life) [h],"Cmax ([1]; Cmax, maximum plasma concentration) [ng/mL]",increase of aqueous solubility over the parent endocannabinoid [2],intraocular pressure (intraocular pressure)
"C=C(C)[C@@H]1CCC(C)=C[C@H]1c1c(O)cc(CCCCC)cc1OS(=O)(=O)O [CBD sulfate morpholinium salt, morpholin-4-ium (1′R,2′R)-6-hydroxy-5′-methyl-4-pentyl-2′-(prop-1-en-2-yl)-1′,2′,3′,4′-tetrahydro-[1,1′-biphenyl]-2-yl sulfate]",10,1,32.7,,,,
"C=C(C)[C@@H]1CCC(C)=C[C@H]1c1c(O)cc(CCCCC)cc1OS(=O)(=O)O [CBD sulfate piperazinium salt, piperazin-1-ium (1′R,2′R)-6-hydroxy-5′-methyl-4-pentyl-2′-(prop-1-en-2-yl)-1′,2′,3′,4′-tetrahydro-[1,1′-biphenyl]-2-yl sulfate]",,1,,3.0,19,,
"C=C(C)[C@@H]1CCC(C)=C[C@H]1c1c(O)cc(CCCCC)cc1OS(=O)(=O)[O-].[Na+] [CBD sulfate sodium salt, sodium (1′R,2′R)-6-hydroxy-5′-methyl-4 pentyl-2′-(prop-1-en-2-yl)-1′,2′,3′,4′-tetrahydro-[1,1′-biphenyl]-2-yl sulfate]",12,1,2.9,,,,
"C=C(C)[C@@H]1CCC(C)=C[C@H]1c1c(O)cc(CCCCC)cc1O [CBD, cannabidiol, reference compound]",4.8,0.5,3.9,,,,
CCCCC/C=C\C/C=C\C/C=C\C/C=C\CCCC(=O)NCCOP(=O)(O)O [phosphate ester pro-drug of anandamide],,,,,,> 16 500 fold,reduced the intraocular pressure
